Test results as given in patent US7988972B2, “Immunoreactive peptides from Epstein-Barr virus” (Ortho-Clinical Diagnostics, Inc., priority 1993, dated 2011).

What was measured:
[1] = tested on: EA reactive antibody (IgG) in infectious mononucleosis (IM) sera; assay: ELISA, EA peptides with EBV infectious mononucleosis sera; assay type: binding, human; settings: for ELISA result, peptides with and without extensions: EA positive EBV IM acute serum; for O.D.: 420 nm
Description: ELISA. The ELISA for measuring specific antibodies to p17, p50 or to the synthetic peptides was performed as previously described in detail (Luka et al., J. Immunol. Methods, 67:145-156, 1984). Aliquots of different antigen concentrations were diluted in 0.5M Na2CO3 buffer, pH 9.5, added to wells in polystyrene microtiter plates (Linbro) and the plates incubated overnight at 4° C. Following this incubation period, the plates were washed 5× with Tris-HCl, pH 7.4, containing 0.05% Tween 20, 50 mM NaCl and 100 mg per liter albumin (Sigma) and dried for 20 minutes at room temperature. The plates were screened with different anti-EA-R or EA-D antibody positive human sera and the monoclonal antibody to p17 or p50 to identify the optimal concentration of antigen to be used in the serological studies. Alkaline-phosphatase-labelled goat anti-human IgG (Sigma) or goat anti-mouse IgG (Sigma) was used as the indicator system.
For the testing of human sera for antibodies to native p17, p50 or to the synthetic peptides, sera were diluted 1:10 in ELISA buffer, added in 0.1 ml volumes to wells coated with optimal concentrations of antigen and the plates were incubated for 60 minutes at room temperature. After 4 washes with ELISA buffer, 100 μl of alkaline phosphatase-labelled goat anti-human IgG in ELISA buffer were added to each well and the plates were incubated at room temperature for 1 hour. Following four more washes in buffer, the enzyme reaction was performed by dissolving 1 mg per ml of Sigma alkaline phosphatase substrate in 1M diethanolamine buffer, pH 10.4, containing 1 mM MgCl2 and 0.1 mM ZnCl2, and 100 μl of the mixture was then added to each well. The reaction was allowed to proceed for 30 minutes at 37° C. and then the plates were screened directly with a microplate reader, TITERTEK MULTISKAN MC (Flow), at 420 nm. Readings above 0.1 which was 2× the background noted with antibody-negative sera were considered positive reactions.
When the entire 50.10 peptide was tested with 1M sera, 24/32 or 75% of the sera contained EA-D reactive antibody (IgG) (Table 4).
Serological reactivity of EA peptides p17.1 and p50.1 which contained additional amino acids on their amino and carboxy termini was tested on EBV IM acute sera which was EA positive. The ELISA results shown in Table 5 indicate that the additional amino acids improved reactivity for both EA peptides.
Immunofluorescence assays (IFA) were performed as described by Henle, et al. (Int. J. Cancer, 8:272-282, 1971). Western blot analysis was done by methods commonly used in the art (See for example, Coligan, et al., Current Protocols in Immunology, Wiley Interscience, 1991, Unit 12). Samples of EBV-infected cell lysates (P3HR-1) were tested with human whole antiserum from positive humans (Pearson, et al., Virology, 160:151-161, 1987). A comparison was made between EA serology by IFA, using the EA-D 50.1 peptide antisera, and ELISA serology using 50.1 peptide (see Example 2).

[2] = tested on: antibodies to peptides 50.10 (EA-D) and 17.1 (EA-R) in sequential sera; assay: IgG ELISA on sequential sera of a patient with acute infectious mononucleosis; assay type: binding, human; settings: sera at 1.20 dilution, (+) >0.25
Excerpt: The early antigen D-R transition was followed in a patient during a course of acute infectious mononucleosis. Antibodies to peptides 50.10 (EA-D) and 17.1 (EA-R) were detected by ELISAs on specimens collected over a six month duration. […] Therefore, the peptides of the invention are useful for monitoring the course of EBV-associated disease in a patient.

[3] = 32 IM sera, values >0.5 positive (O.D. 420 nm)

ETFTETWNRFITHTE [p17.1, synthetic peptide from 17 Kd early antigen (EA-R) region of EBV]
% Positive [1, 3]: 38% | IM sera positive / tested [1, 3]: 12/32 | ELISA result, peptides with and without extensions ([1]; sample no. 2241): 0.282 | ELISA result, peptides with and without extensions ([1]; sample no. 12498): 0.637 | ELISA result, peptides with and without extensions ([1]; sample no. 12836): 0.692 | SCORE ([1]; IM serum sample no. 2241): − (Values >0.5 were considered positive (O.D. readings at 420 nm).) | SCORE ([1]; IM serum sample no. 11984): + (Values >0.5 were considered positive (O.D. readings at 420 nm).) | O.D. ([1]; IM serum sample no. 11984): 0.542 | SCORE ([1]; IM serum sample no. 12005): + (Values >0.5 were considered positive (O.D. readings at 420 nm).) | O.D. ([1]; IM serum sample no. 12005): 0.981 | SCORE ([1]; IM serum sample no. 12288): + (Values >0.5 were considered positive (O.D. readings at 420 nm).) | O.D. ([1]; IM serum sample no. 12288): 0.700 | SCORE ([1]; IM serum sample no. 12407): + (Values >0.5 were considered positive (O.D. readings at 420 nm).) | O.D. ([1]; IM serum sample no. 12407): 0.787 | SCORE ([1]; IM serum sample no. 12409): + (Values >0.5 were considered positive (O.D. readings at 420 nm).) | O.D. ([1]; IM serum sample no. 12409): 0.592 | SCORE ([1]; IM serum sample no. 12418): − (Values >0.5 were considered positive (O.D. readings at 420 nm).) | O.D. ([1]; IM serum sample no. 12418): 0.463 | SCORE ([1]; IM serum sample no. 12498): + (Values >0.5 were considered positive (O.D. readings at 420 nm).) | SCORE ([1]; IM serum sample no. 12502): + (Values >0.5 were considered positive (O.D. readings at 420 nm).) | O.D. ([1]; IM serum sample no. 12502): 0.924 | SCORE ([1]; IM serum sample no. 12587): + (Values >0.5 were considered positive (O.D. readings at 420 nm).) | O.D. ([1]; IM serum sample no. 12587): 0.571 | SCORE ([1]; IM serum sample no. 12600): − (Values >0.5 were considered positive (O.D. readings at 420 nm).) | SCORE ([1]; IM serum sample no. 12611): − (Values >0.5 were considered positive (O.D. readings at 420 nm).) | O.D. ([1]; IM serum sample no. 12611): 0.259 | SCORE ([1]; IM serum sample no. 12801): + (Values >0.5 were considered positive (O.D. readings at 420 nm).) | O.D. ([1]; IM serum sample no. 12801): 0.601 | SCORE ([1]; IM serum sample no. 12828): − (Values >0.5 were considered positive (O.D. readings at 420 nm).) | O.D. ([1]; IM serum sample no. 12828): 0.375 | SCORE ([1]; IM serum sample no. 12829): − (Values >0.5 were considered positive (O.D. readings at 420 nm).) | O.D. ([1]; IM serum sample no. 12829): 0.257 | SCORE ([1]; IM serum sample no. 12836): + (Values >0.5 were considered positive (O.D. readings at 420 nm).) | SCORE ([1]; IM serum sample no. 12837): + (Values >0.5 were considered positive (O.D. readings at 420 nm).) | O.D. ([1]; IM serum sample no. 12837): 0.523 | SCORE ([1]; IM serum sample no. 12840): − (Values >0.5 were considered positive (O.D. readings at 420 nm).) | O.D. ([1]; IM serum sample no. 12840): 0.488 | SCORE ([1]; IM serum sample no. 12888): − (Values >0.5 were considered positive (O.D. readings at 420 nm).) | O.D. ([1]; IM serum sample no. 12888): 0.423 | SCORE ([1]; IM serum sample no. 12889): + (Values >0.5 were considered positive (O.D. readings at 420 nm).) | O.D. ([1]; IM serum sample no. 12889): 0.574 | SCORE ([1]; IM serum sample no. 12892): − (Values >0.5 were considered positive (O.D. readings at 420 nm).) | O.D. ([1]; IM serum sample no. 12892): 0.430 | SCORE ([1]; IM serum sample no. 12893): + (Values >0.5 were considered positive (O.D. readings at 420 nm).) | O.D. ([1]; IM serum sample no. 12893): 0.592 | SCORE ([1]; IM serum sample no. 12899): + (Values >0.5 were considered positive (O.D. readings at 420 nm).) | O.D. ([1]; IM serum sample no. 12899): 0.825 | SCORE ([1]; IM serum sample no. 12900): − (Values >0.5 were considered positive (O.D. readings at 420 nm).) | O.D. ([1]; IM serum sample no. 12900): 0.264 | SCORE ([1]; IM serum sample no. 13075): − (Values >0.5 were considered positive (O.D. readings at 420 nm).) | O.D. ([1]; IM serum sample no. 13075): 0.154 | SCORE ([1]; IM serum sample no. 13419): + (Values >0.5 were considered positive (O.D. readings at 420 nm).) | O.D. ([1]; IM serum sample no. 13419): 0.655 | SCORE ([1]; IM serum sample no. 13637): + (Values >0.5 were considered positive (O.D. readings at 420 nm).) | O.D. ([1]; IM serum sample no. 13637): 0.719 | SCORE ([1]; IM serum sample no. 13769): + (Values >0.5 were considered positive (O.D. readings at 420 nm).) | O.D. ([1]; IM serum sample no. 13769): 0.757 | SCORE ([1]; IM serum sample no. 13929): − (Values >0.5 were considered positive (O.D. readings at 420 nm).) | O.D. ([1]; IM serum sample no. 13929): 0.332 | SCORE ([1]; IM serum sample no. 14043): − (Values >0.5 were considered positive (O.D. readings at 420 nm).) | O.D. ([1]; IM serum sample no. 14043): 0.095 | SCORE ([1]; IM serum sample no. 14128): − (Values >0.5 were considered positive (O.D. readings at 420 nm).) | O.D. ([1]; IM serum sample no. 14128): 0.434 | SCORE ([1]; IM serum sample no. 14131): − (Values >0.5 were considered positive (O.D. readings at 420 nm).) | O.D. ([1]; IM serum sample no. 14131): 0.182 | IgG ELISA O.D. reading ([2]; serum no. 9817, May 26, 1988): 0.158 | IgG ELISA O.D. reading ([2]; serum no. 9820, May 31, 1988): 0.106 | IgG ELISA O.D. reading ([2]; serum no. 9829, Jun. 07, 1988): 0.135 | IgG ELISA O.D. reading ([2]; serum no. 9941, Jun. 20, 1988): 0.169 | IgG ELISA O.D. reading ([2]; serum no. 9983, Jun. 27, 1988): 0.645 | IgG ELISA O.D. reading ([2]; serum no. 10064, Jul. 18, 1988): 0.842 | IgG ELISA O.D. reading ([2]; serum no. 10237, Aug. 29, 1988): 0.260 | IgG ELISA O.D. reading ([2]; serum no. 10271, Sep. 20, 1988): 0.231 | IgG ELISA O.D. reading ([2]; serum no. 10488, Oct. 21, 1988): 0.217 | IgG ELISA O.D. reading ([2]; serum no. 10546, Nov. 15, 1988): 0.193
